Experimental data reported in PubChem BioAssay (NCI).
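Compound exposure: 48 hours, 5 concentrations, 96-well plates. Abbreviation: GI50, concentration required for 50% inhibition of growth. TGI marks complete inhibition of growth.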

Key:
Assay in all cases: DTP human tumour cell line panel, 48 h; in the data active means GI50 below about 0.43 µM; inactive means the rest
SN12C renal = system: SN12C renal
MCF7 breast = system: MCF7 breast
PC-3 prostate = system: PC-3 prostate
U251 CNS = system: U251 CNS
HCC-2998 colon = system: HCC-2998 colon
HT29 colon = system: HT29 colon
RXF 393 renal = system: RXF 393 renal
SF-539 CNS = system: SF-539 CNS
NCI-H226 lung = system: NCI-H226 lung
NCI/ADR-RES ovarian = system: NCI/ADR-RES ovarian
OVCAR-4 ovarian = system: OVCAR-4 ovarian
TK-10 renal = system: TK-10 renal
OVCAR-5 ovarian = system: OVCAR-5 ovarian
SK-OV-3 ovarian = system: SK-OV-3 ovarian
OVCAR-3 ovarian = system: OVCAR-3 ovarian
NCI-H522 lung = system: NCI-H522 lung
NCI-H460 lung = system: NCI-H460 lung
KM12 colon = system: KM12 colon
T-47D breast = system: T-47D breast
UACC-62 melanoma = system: UACC-62 melanoma
SF-268 CNS = system: SF-268 CNS
MALME-3M melanoma = system: MALME-3M melanoma
DU-145 prostate = system: DU-145 prostate
M14 melanoma = system: M14 melanoma
SNB-75 CNS = system: SNB-75 CNS
MDA-N = system: MDA-N
HL-60(TB) leukemia = system: HL-60(TB) leukemia
UO-31 renal = system: UO-31 renal
UACC-257 melanoma = system: UACC-257 melanoma
MOLT-4 leukemia = system: MOLT-4 leukemia
HOP-62 NSCLC = system: HOP-62 NSCLC
MDA-MB-231 breast = system: MDA-MB-231 breast
OVCAR-8 ovarian = system: OVCAR-8 ovarian
COLO 205 colon = system: COLO 205 colon
HCT-116 colon = system: HCT-116 colon
HS 578T breast = system: HS 578T breast
LOX IMVI melanoma = system: LOX IMVI melanoma
IGROV1 ovarian = system: IGROV1 ovarian
786-0 renal = system: 786-0 renal
MDA-MB-435 = system: MDA-MB-435
SK-MEL-2 melanoma = system: SK-MEL-2 melanoma
K-562 leukemia = system: K-562 leukemia
SK-MEL-28 melanoma = system: SK-MEL-28 melanoma
NCI-H23 lung = system: NCI-H23 lung
ACHN renal = system: ACHN renal
CCRF-CEM leukemia = system: CCRF-CEM leukemia
SR leukemia = system: SR leukemia
SF-295 CNS = system: SF-295 CNS
SW-620 colon = system: SW-620 colon
HCT-15 colon = system: HCT-15 colon
RPMI-8226 leukemia = system: RPMI-8226 leukemia
A498 renal = system: A498 renal
SNB-19 CNS = system: SNB-19 CNS

CCC1=C(C)c2cc3[n-]c(cc4nc(c(C=O)c5[n-]c(cc1n2)c(C)c5CC)C(C)=C4CC)c(C)c3CC.[Ni+2]
active: GI50 (SR leukemia) 0.022 µM
> 100 µM: TGI (SN12C renal) | TGI (MCF7 breast) | TGI (PC-3 prostate) | TGI (U251 CNS) | TGI (HCC-2998 colon) | TGI (HT29 colon) | TGI (RXF 393 renal) | TGI (SF-539 CNS) | TGI (NCI-H226 lung) | TGI (NCI/ADR-RES ovarian) | TGI (OVCAR-4 ovarian) | TGI (TK-10 renal) | TGI (OVCAR-5 ovarian) | TGI (SK-OV-3 ovarian) | TGI (OVCAR-3 ovarian) | TGI (NCI-H522 lung) | TGI (NCI-H460 lung) | TGI (KM12 colon) | TGI (T-47D breast) | TGI (UACC-62 melanoma) | TGI (SF-268 CNS) | TGI (MALME-3M melanoma) | TGI (DU-145 prostate) | TGI (M14 melanoma) | TGI (SNB-75 CNS) | TGI (MDA-N) | TGI (HL-60(TB) leukemia) | TGI (UO-31 renal) | TGI (UACC-257 melanoma) | TGI (MOLT-4 leukemia) | TGI (HOP-62 NSCLC) | TGI (MDA-MB-231 breast) | TGI (OVCAR-8 ovarian) | TGI (COLO 205 colon) | TGI (HCT-116 colon) | TGI (HS 578T breast) | TGI (LOX IMVI melanoma) | TGI (IGROV1 ovarian) | TGI (786-0 renal) | TGI (MDA-MB-435) | TGI (SK-MEL-2 melanoma) | TGI (K-562 leukemia) | TGI (SK-MEL-28 melanoma) | TGI (NCI-H23 lung) | TGI (ACHN renal) | TGI (CCRF-CEM leukemia) | TGI (SR leukemia) | TGI (SF-295 CNS) | TGI (SW-620 colon) | TGI (HCT-15 colon) | TGI (RPMI-8226 leukemia) | TGI (A498 renal) | TGI (SNB-19 CNS)
inactive: GI50 (SN12C renal) > 100 µM | GI50 (MCF7 breast) > 100 µM | GI50 (PC-3 prostate) > 100 µM | GI50 (U251 CNS) > 100 µM | GI50 (HCC-2998 colon) > 100 µM | GI50 (HT29 colon) > 100 µM | GI50 (RXF 393 renal) > 100 µM | GI50 (SF-539 CNS) > 100 µM | GI50 (NCI-H226 lung) > 100 µM | GI50 (NCI/ADR-RES ovarian) > 100 µM | GI50 (OVCAR-4 ovarian) > 100 µM | GI50 (TK-10 renal) > 100 µM | GI50 (OVCAR-5 ovarian) > 100 µM | GI50 (SK-OV-3 ovarian) > 100 µM | GI50 (OVCAR-3 ovarian) > 100 µM | GI50 (NCI-H522 lung) > 100 µM | GI50 (NCI-H460 lung) > 100 µM | GI50 (KM12 colon) > 100 µM | GI50 (T-47D breast) > 100 µM | GI50 (UACC-62 melanoma) > 100 µM | GI50 (SF-268 CNS) > 100 µM | GI50 (MALME-3M melanoma) > 100 µM | GI50 (DU-145 prostate) > 100 µM | GI50 (M14 melanoma) > 100 µM | GI50 (SNB-75 CNS) 93.6 µM | GI50 (MDA-N) > 100 µM | GI50 (HL-60(TB) leukemia) > 100 µM | GI50 (UO-31 renal) > 100 µM | GI50 (UACC-257 melanoma) > 100 µM | GI50 (MOLT-4 leukemia) > 100 µM | GI50 (HOP-62 NSCLC) > 100 µM | GI50 (MDA-MB-231 breast) > 100 µM | GI50 (OVCAR-8 ovarian) > 100 µM | GI50 (COLO 205 colon) > 100 µM | GI50 (HCT-116 colon) > 100 µM | GI50 (HS 578T breast) > 100 µM | GI50 (LOX IMVI melanoma) > 100 µM | GI50 (IGROV1 ovarian) > 100 µM | GI50 (786-0 renal) > 100 µM | GI50 (MDA-MB-435) > 100 µM | GI50 (SK-MEL-2 melanoma) > 100 µM | GI50 (K-562 leukemia) > 100 µM | GI50 (SK-MEL-28 melanoma) > 100 µM | GI50 (NCI-H23 lung) > 100 µM | GI50 (ACHN renal) > 100 µM | GI50 (CCRF-CEM leukemia) > 100 µM | GI50 (SF-295 CNS) > 100 µM | GI50 (SW-620 colon) > 100 µM | GI50 (HCT-15 colon) > 100 µM | GI50 (RPMI-8226 leukemia) > 100 µM | GI50 (A498 renal) > 100 µM | GI50 (SNB-19 CNS) > 100 µM
